Assay results: the supplement of paper PMC6335503
± gives the standard deviation of the averaged measurements.

Legend:
Assay in all cases: cell viability, percent of DMSO control (CellTiter-Glo); higher = more viable cells
Conditions in all cases: 72 h
[1] = tested on: DFTD cell line T2 (05/2569)
Method: (§1)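 Eight-point dose titration of 41 screen hits in triplicate wells on four Tasmanian devil DFTD tumour cell lines (T1-T4) and devil fibroblasts, 384-well plates. Viability was read by CellTiter-Glo (ATP) after 72 h at 37 °C. Percent of control per plate: DMSO wells = 100%, positive-control wells = 0%.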

[2] = tested on: DFTD cell line T1 (06/2887)
Method: as §1

[3] = tested on: DFTD cell line T3 (06/0368)
Method: as §1

[4] = tested on: DFTD cell line T4 (07/0192)
Method: as §1

Compound | cell viability ([1]; 0.00617 µM) | cell viability ([1]; 0.0185 µM) | cell viability ([1]; 0.0556 µM) | cell viability ([1]; 0.166667 µM) | cell viability ([1]; 0.5 µM) | cell viability ([1]; 1.5 µM) | cell viability ([1]; 4.5 µM) | cell viability ([1]; 13.5 µM) | cell viability ([2]; 0.00617 µM) | cell viability ([2]; 0.0185 µM) | cell viability ([2]; 0.0556 µM) | cell viability ([2]; 0.166667 µM) | cell viability ([2]; 0.5 µM) | cell viability ([2]; 1.5 µM) | cell viability ([2]; 4.5 µM) | cell viability ([2]; 13.5 µM) | cell viability ([3]; 0.00617 µM) | cell viability ([3]; 0.0185 µM) | cell viability ([3]; 0.0556 µM) | cell viability ([3]; 0.166667 µM) | cell viability ([3]; 0.5 µM) | cell viability ([3]; 1.5 µM) | cell viability ([3]; 4.5 µM) | cell viability ([3]; 13.5 µM) | cell viability ([4]; 0.00617 µM) | cell viability ([4]; 0.0185 µM) | cell viability ([4]; 0.0556 µM) | cell viability ([4]; 0.166667 µM) | cell viability ([4]; 0.5 µM) | cell viability ([4]; 1.5 µM) | cell viability ([4]; 4.5 µM) | cell viability ([4]; 13.5 µM)
CC#CC(=O)Nc1ccc2ncnc(Nc3cccc(Br)c3)c2c1 | 99.6 ± 5.3% | 85 ± 13% | 101 ± 18% | 84 ± 5.7% | 84.5 ± 1% | 44.6 ± 5.5% | 30.3 ± 8.2% | 33.4 ± 7.6% | 94 ± 1.7% | 95.5 ± 10% | 79.5 ± 27% | 63.3 ± 5.6% | 40.9 ± 1.1% | 21.1 ± 9.7% | 14.8 ± 1.1% | 12.3 ± 6.3% | 95.8 ± 5.2% | 105 ± 20% | 108 ± 30% | 76.6 ± 10% | 65.5 ± 12% | 38.7 ± 7% | 28.4 ± 4.2% | 18.3 ± 9.3% | 81.6 ± 19% | 98.5 ± 10% | 106 ± 20% | 73.9 ± 11% | 50.7 ± 1.8% | 22.7 ± 13% | 13.5 ± 5.1% | 4.04 ± 10%
COc1cc2ncnc(Nc3ccc(Cl)cc3F)c2cc1OC | 105 ± 20% | 86.8 ± 13% | 112 ± 22% | 116 ± 35% | 85.2 ± 24% | 59.5 ± 9.7% | 27.6 ± 4.8% | 28.3 ± 5% | 98.4 ± 38% | 95.7 ± 3.3% | 124 ± 36% | 110 ± 31% | 83.1 ± 28% | 44.3 ± 8.7% | 26.7 ± 7.2% | 36.9 ± 1.4% | 120 ± 13% | 89.3 ± 13% | 119 ± 19% | 97.1 ± 20% | 85.5 ± 8.9% | 66.1 ± 8.5% | 43.7 ± 8.6% | 47.2 ± 1.9% | 116 ± 7.2% | 99.5 ± 7.3% | 119 ± 36% | 97 ± 12% | 93.8 ± 12% | 75.3 ± 13% | 45 ± 6.2% | 35.2 ± 3.8%
COc1cc2ncnc(Nc3cccc(Br)c3)c2cc1OC.Cl | 115 ± 13% | 106 ± 32% | 106 ± 25% | 107 ± 11% | 77 ± 26% | 40.7 ± 2.4% | 32.9 ± 7.8% | 21.2 ± 5.5% | 126 ± 20% | 99 ± 21% | 112 ± 21% | 111 ± 19% | 63 ± 27% | 24.8 ± 4.3% | 22.8 ± 4.8% | 12.4 ± 4% | 127 ± 22% | 90.2 ± 19% | 118 ± 9.9% | 108 ± 7.1% | 89.1 ± 20% | 49 ± 2.4% | 39.8 ± 1.5% | 30.8 ± 7.7% | 126 ± 14% | 94 ± 30% | 105 ± 1.4% | 104 ± 9.2% | 91 ± 33% | 48.8 ± 3.7% | 28.6 ± 4.1% | 17.7 ± 5.7%
